Experimental data from patent publication US8435947B2, “Endothelial nitric oxide synthase antagonists and uses thereof for inhibiting oxygen toxicity” (Medical College of Georgia Research Institute, Inc., priority 2010, dated 2013).

How the values were obtained:
[1] = test system: pulmonary artery endothelial cells; assay: superoxide formation in endothelial cells (CMH spin trap, EPR); assay type: cell-based, pigs; conditions: ETU 100 μm
Procedure: (§1) To measure NO production, endothelial cells were incubated with ABS peptides for 3 h. Then ionomycin (2 μM) was added to the cells. After an additional 30 min, culture medium was collected and ethanol-precipitated to remove proteins. 50 μl of the reaction mix were loaded to the SIEVERS machine for NOx measurement as described above. For superoxide assay, after incubation with ABS peptides, the spin trap CMH was added to the cells. Superoxide from cells was trapped for 1 h, and then cells were scraped and subjected to EPR spectroscopy.

COS-7 cells = assay: superoxide formation in COS-7 cells transfected with wild type or mutant eNOS; assay type: cell-based; conditions: ETU 100 μm or PEG-SOD
Description: Human eNOS gene (GenBank™ M93718.1) was cloned into HindIII and XbaI sites of pcDNA3 vector and regarded as wild-type eNOS. […] The site-directed mutagenesis was custom-made by Retrogen (San Diego, Calif.). The sequences of both strands of the gene in the mutated region were verified by using ABI 3730 automated sequencer. Plasmids containing wild-type eNOS cDNA or eNOS mutant cDNA were transfected into COS-7 cells using Lipofectamine LTX with PLUS reagent (Invitrogen, Carlsbad, Calif.) according to the manufacturer's protocol. 48 h after transfection, cells were used for co-immunoprecipitation and assays for NO and superoxide generation.
After wild-type and eNOS mutant transfection, ionomycin (2 μm) was added to the cells. After 30 min of incubation, culture medium was collected and ethanol-precipitated to remove proteins. 50 μl of the reaction mix were loaded to the SIEVERS machine for NOx measurement according to standard manufacturer's instructions (Church, J. E., and Fulton, D. (2006) J. Biol. Chem. 281, 1477-88). In some experiments, N^G-nitro-1-arginine methyl ester (L-NAME), a specific eNOS inhibitor, was used to inhibit NO production. […] For superoxide assay, after incubation with ABS peptides, the spin trap CMH was added to the cells. […] Protein contents in the cell lysates were determined by Lowry's method.

[2] = test system: pulmonary artery endothelial cells; assay: NO production in endothelial cells (NOx, SIEVERS); assay type: cell-based, pigs
Procedure: After wild-type and eNOS mutant transfection, ionomycin (2 μm) was added to the cells. After 30 min of incubation, culture medium was collected and ethanol-precipitated to remove proteins. 50 μl of the reaction mix were loaded to the SIEVERS machine for NOx measurement according to standard manufacturer's instructions (Church, J. E., and Fulton, D. (2006) J. Biol. Chem. 281, 1477-88). In some experiments, N^G-nitro-1-arginine methyl ester (L-NAME), a specific eNOS inhibitor, was used to inhibit NO production. […] For superoxide assay, after incubation with ABS peptides, the spin trap CMH was added to the cells. Superoxide from cells was trapped for 1 h, and then cells were scraped and subjected to EPR spectroscopy as previously described (Sud, N., et al. (2008) Am. J. Physiol. Cell Physiol. 294, C1407-18). Protein contents in the cell lysates were determined by Lowry's method.
as §1, with “Superoxide from cells was trapped for 1 h, and then cells were scraped and subjected to EPR spectroscopy.” left out

[3] = test system: pulmonary artery endothelial cells; assay: endothelial monolayer wound repair; assay type: cell-based, pigs; conditions: PEG-SOD 100 units/ml, NOC-18 10 μm
Procedure: Pulmonary artery endothelial cells were incubated with ABS peptides for 3 h. Then endothelial monolayer wound repair in the absence and presence of PEG-SOD (100 units/ml) and NOC-18 (10 μm) was measured as previously reported (Su, Y., et al. (2006) FASEB J. 20, 1443-51). Endothelial monolayer wound repair distance was expressed as the width of the wound before treatment subtracted by that after treatment.

PAEC [4] = assay: superoxide radicals in hyperoxic PAEC (DHE fluorescence); assay type: cell-based, pigs; conditions: 95% oxygen 24 h, tiron 5 mM
Procedure: After hyperoxic exposure, cells were loaded with 10 μM dihydroethidine (DHE) for 30 min. […] The excitation and emission wavelengths were 510 nm and 590 nm.

PAEC [5] = assay: peroxynitrite formation in hyperoxic PAEC (APF fluorescence); assay type: cell-based, pigs; conditions: 95% oxygen 24 h, uric acid 100 μM
Procedure: (§2) Third- to sixth-passage cells in monolayer culture were maintained in RPMI 1640 medium containing 4% fetal bovine serum and antibiotics (10 units/ml penicillin, 100 μg/ml streptomycin, 20 μg/ml gentamicin, and 2 μg/ml Fungizone) and were used 2 or 3 days after confluence.
To reduce β-actin availability to eNOS, the β-actin mRNA was silenced using its siRNA as previously reported by us (Kondrikov, D., et al. (2006) Am. J. Physiol. Lung Cell Mol. Physiol. 290, L41-L50).

purified eNOS [6] = assay: NO (NOx) production by purified eNOS in vitro; assay type: biochemical, human; conditions: peptide 20 μm; for β-actin-induced increase in NO production: β-actin 2.0 μm
Procedure: NO production was determined by measuring NOx (NO2 and NO3). Purified eNOS and β-actin were preincubated at room temperature for 30 min and then added to a 50-μl reaction mix containing 50 mM HEPES buffer, 1 mM NADPH, 100 μmM Larginine, 1 mmM CaCl2, 10 μg/ml calmodulin, 4 μM BH4. The mixture was incubated at 37° C. for 30 min. 40 μl of the reaction mix were loaded to the SIEVERS machine for NOx measurement according to standard manufacturer's instructions as previously described (Church, J. E., and Fulton, D. (2006) J. Biol. Chem. 281, 1477-88). For experiments with ABS peptides, β-actin and peptides were preincubated at room temperature for 20 min before eNOS protein was added.

purified eNOS [7] = assay: L-citrulline assay with purified eNOS; assay type: biochemical, human; conditions: peptide 20 μm; for β-actin-induced increase in L-citrulline production: β-actin 2.0 μm
Procedure: (§3) Wild-type and mutant eNOS proteins in COS-7 cells were purified. The catalytic activity of purified eNOS mutant protein was assayed by the measurement ofl-[^3H]citrulline formation from 1-[^3H]arginine as reported previously (Su, Y., et al. (2003) Am. J. Physiol. Cell Physiol. 284, C1542-49). To determine NADPH consumption by eNOS, 0.3 mm NADPH was added to 200 μl of reaction mix containing 1 μg eNOS, 1 μM FAD, 1 μmM FMN, 10 μg/ml calmodulin, 100 μMm L-arginine, 1 mM CaCl2, 10 μg/ml calmodulin, and 2.5 mM ATP. The reaction was monitored at […] for 10 min. NADPH consumption was calculated by using a molar extinction coefficient 6.22 mm^−·cm^−1. The superoxide formation from purified eNOS mutant was measured by spin trapping and EPR spectroscopy.

purified eNOS [8] = assay: superoxide generation by purified eNOS, spin-trapping EPR spectroscopy; assay type: biochemical, human; conditions: peptide 20 μm; for β-actin-induced decrease in superoxide formation: β-actin 2.0 μm
Procedure: eNOS-derived superoxide generation was measured by electron paramagnetic resonance (EPR) spectroscopy and spin trapping as previously described (Sud, N., et al. (2008) Am. J. Physiol. Cell Physiol. 294, C1407-18). 50 μl of reaction mix containing 50 mM HEPES buffer, 1 mM NADPH, 100 μM Larginine, 1 mM CaCl2, 10 μg/ml calmodulin, and 1 μg of purified eNOS were incubated at 37° C. for 60 min. 12.5 μl of spin probe N1-hydroxy-3-methoxy-carbonyl-2,2,5,5-tetramethyl-pyrrolidine (CMH) in EPR buffer were added to the reaction mix. 35 μl of the final reaction mix were loaded into a 50-μl capillary tube and analyzed with a MiniScopeMS200 EPR (Magnetech, Berlin, Germany). A reaction curve was generated by adding 1 unit/ml of xanthine oxidase into 500 μM xanthine solution in buffered PBS (pH 7.4), which contains 5 μM diethyldithiocarbamate and 25 μMm desferrioxamine to inhibit any conversion of superoxide into either hydrogen peroxide or hydroxyl radical via Fenton reaction. Reactions were allowed to proceed at 25° C. for up to 40 min. Following incubation, ˜35 μl of each reaction mixture was loaded into a 50 μl capillary tube and analyzed immediately with EPR spectroscopy. EPR spectra were analyzed for amplitude using […] software (version 2.02, Magnettech). Given that 1 unit of xanthine oxidase will convert 1 μmol of xanthine per minute at 25° C., based on this standard curve, it was calculated that 1 EPR amplitude units is equivalent of 0.35 pmol of superoxide.

purified eNOS [9] = assay: NADPH consumption assay with purified eNOS; assay type: biochemical, human; conditions: peptide 20 μm, β-actin 2.0 μm, absence of BH4
Procedure: as §3

[10] = target: T1, F-actin (polymerized human β-actin) (Homo sapiens, UniProt P60709); assay: F-actin binding spin-down assay; conditions: peptide 10 μM, 23 μM F-actin, 30 min, 150,000×g 2 h
T1 construct: purchased Cytoskeleton, Inc. (Denver, Co)
Procedure: The binding capacities of the peptides to β-actin were measured by using an F-actin binding spin-down assay kit from Cytoskeleton, Inc. (Denver, Co). Monomeric human β-actin was polymerized into F-actin in F-actin buffer (5 mM Tris-HCl, pH 7.8, 1 mM ATP, 0.5 mM DTT, 0.2 mmM CaCl2, 0.2 mM MgCl2, and 100 mM KCl) for 1 h at 24° C. ABS peptides at final concentrations of 10 μM were incubated alone or with 23 μM F-actin in F-actin buffer for 30 min in a total volume of 50 μl. The mixtures were centrifuged at 150,000×g for 2 h at 24° C. in a Beckman TLA-100 rotor. Supernatant and pellet fractions were resuspended in loading buffer and subjected to SDS-PAGE. The gel was stained with Coomassie Blue. The density of the band was measured using Software Image J.
Actin binding capabilities of the synthesized ABS peptides corresponding to putative ABSs in eNOS were evaluated by the F-actin binding spin-down assay. ABS peptides 326 (P326), control peptides, ABS peptides 492 (P492), and ABS peptides 245 (P245) at final concentrations of 10 μm were incubated for 30 min alone or with 23 μm F-actin in F-actin buffer containing 2.5 μM ATP and 2.5 μM DTT. After high speed centrifugation at 150,000×g for 2 h, the supernatants and pellets were subjected to SDS-PAGE analysis.

PAEC [11] = conditions: peptide 20 μM, 95% oxygen 24 h
Procedure: as §2

## CCSC(=N)N [ETU, 2-ethyl-2-thiopseudourea, reference compound]
[1]
  P326TAT-induced increase in superoxide formation: inhibited P326TAT-induced increase in superoxide formation
COS-7 cells
  superoxide generated from COS-7 cells, wild type versus eNOS mutant, in the presence of the agent: the amounts of superoxide generated from COS-7 cells containing wild type and eNOS mutant were comparable

## COC(=O)[C@@H](N)CCCNC(=N)N[N+](=O)[O-] [L-NAME, N^G-nitro-1-arginine methyl ester, reference compound]
[2]
  inhibition of NO production: 90%

## NCCN(CCN)/[N+]([O-])=N/O [NOC-18, reference compound]
[3]
  P326TAT-induced decrease in monolayer wound repair: prevented P326TAT-induced decrease in monolayer wound repair

## O=S(=O)(O)c1cc(O)c(O)c(S(=O)(=O)O)c1 [tiron]
PAEC [4]
  increase in DHE fluorescence intensity (superoxide radical) in hyperoxic PAEC: prevented the increase in the fluorescence intensity in hyperoxic PAEC

## O=c1[nH]c(=O)c2[nH]c(=O)[nH]c2[nH]1 [uric acid, reference compound]
PAEC [5]
  hyperoxia-induced increase in APF fluorescence intensity (peroxynitrite): prevented hyperoxia-induced increase in the fluorescence intensity

## AGARAYAA [control peptide for peptide 326, reference compound]
Purified eNOS [6]
  β-actin-induced increase in NO production: did not affect β-actin-induced changes in the production of NO, L-citrulline, and superoxide from eNOS
Purified eNOS [7]
  β-actin-induced increase in L-citrulline production: did not affect β-actin-induced changes in the production of NO, L-citrulline, and superoxide from eNOS
Purified eNOS [8]
  β-actin-induced decrease in superoxide formation: did not affect β-actin-induced changes in the production of NO, L-citrulline, and superoxide from eNOS

## LGLRWYAL [ABS peptide 326]
Purified eNOS [6]; without β-actin
  NO production from eNOS, peptide per se: did not affect NO and L-citrulline production and superoxide formation
Purified eNOS [6]
  β-actin-induced increase in NO production: prevented β-actin-induced increase in NO and L-citrulline production
Purified eNOS [7]; without β-actin
  L-citrulline production from eNOS, peptide per se: did not affect NO and L-citrulline production and superoxide formation
Purified eNOS [7]
  β-actin-induced increase in L-citrulline production: prevented β-actin-induced increase in NO and L-citrulline production
Purified eNOS [8]; without β-actin
  superoxide formation from eNOS, peptide per se: did not affect NO and L-citrulline production and superoxide formation
Purified eNOS [8]
  β-actin-induced decrease in superoxide formation: prevented
Purified eNOS [9]
  β-actin-induced decrease in NADPH consumption: prevented β-actin-induced decrease in NADPH consumption

## NSQLVRYAGYRQQDGSVRGDPANVEITEL [ABS peptide 245]
[10]
  peptide pulled down to the pellets with F-actin: not pulled down to the pellets with F-actin

## RKKRRQRRRAAGARAYAA [control peptide TAT, reference compound]
PAEC [11]
  tyrosine nitration of proteins at 250, 100, 75, and 60 kDa, hyperoxia versus normoxia: hyperoxia induced the increases in tyrosine nitration of proteins
